Test results: US12441726B2, “Compounds and uses thereof” (Foghorn Therapeutics Inc., priority 2020, dated 2025)

How the values were obtained:
[1] = target: BRG-1 (Homo sapiens, UniProt P51532); experiment: ATPase catalytic activity assay (ADP-Glo), BRG-1; settings: for Emax: 1 h, read-out: BRG1 Max % Inhibition, ADP-Glo, 30 nM BRG-1, 400 μM ATP
Description: (§1) The ATPase catalytic activity of BRM or BRG-1 was measured by an in vitro biochemical assay using ADP-Glo™ (Promega, V9102). The ADP-Glo™ kinase assay is performed in two steps once the reaction is complete. The first step is to deplete any unconsumed ATP in the reaction. The second step is to convert the reaction product ADP to ATP, which will be utilized by the luciferase to generate luminesce and be detected by a luminescence reader, such as Envision.
(§2) Then following addition of 5 μL of ADP-Glo™ Reagent provided in the kit, the reaction incubates at room temperature for 40 minutes. Then 10 μL of Kinase Detection Reagent provided in the kit is added to convert ADP to ATP, and the reaction incubates at room temperature for 60 minutes. Finally, luminescence measurement is collected with a plate-reading luminometer, such as Envision.

[2] = target: BRM (Homo sapiens, UniProt P51531); experiment: ATPase catalytic activity assay (ADP-Glo), BRM; settings: 30 nM BRM, 400 μM ATP; for IC50: BRM ATPase: IC50 (uM)
BRM, sequence (P51531 whole entry): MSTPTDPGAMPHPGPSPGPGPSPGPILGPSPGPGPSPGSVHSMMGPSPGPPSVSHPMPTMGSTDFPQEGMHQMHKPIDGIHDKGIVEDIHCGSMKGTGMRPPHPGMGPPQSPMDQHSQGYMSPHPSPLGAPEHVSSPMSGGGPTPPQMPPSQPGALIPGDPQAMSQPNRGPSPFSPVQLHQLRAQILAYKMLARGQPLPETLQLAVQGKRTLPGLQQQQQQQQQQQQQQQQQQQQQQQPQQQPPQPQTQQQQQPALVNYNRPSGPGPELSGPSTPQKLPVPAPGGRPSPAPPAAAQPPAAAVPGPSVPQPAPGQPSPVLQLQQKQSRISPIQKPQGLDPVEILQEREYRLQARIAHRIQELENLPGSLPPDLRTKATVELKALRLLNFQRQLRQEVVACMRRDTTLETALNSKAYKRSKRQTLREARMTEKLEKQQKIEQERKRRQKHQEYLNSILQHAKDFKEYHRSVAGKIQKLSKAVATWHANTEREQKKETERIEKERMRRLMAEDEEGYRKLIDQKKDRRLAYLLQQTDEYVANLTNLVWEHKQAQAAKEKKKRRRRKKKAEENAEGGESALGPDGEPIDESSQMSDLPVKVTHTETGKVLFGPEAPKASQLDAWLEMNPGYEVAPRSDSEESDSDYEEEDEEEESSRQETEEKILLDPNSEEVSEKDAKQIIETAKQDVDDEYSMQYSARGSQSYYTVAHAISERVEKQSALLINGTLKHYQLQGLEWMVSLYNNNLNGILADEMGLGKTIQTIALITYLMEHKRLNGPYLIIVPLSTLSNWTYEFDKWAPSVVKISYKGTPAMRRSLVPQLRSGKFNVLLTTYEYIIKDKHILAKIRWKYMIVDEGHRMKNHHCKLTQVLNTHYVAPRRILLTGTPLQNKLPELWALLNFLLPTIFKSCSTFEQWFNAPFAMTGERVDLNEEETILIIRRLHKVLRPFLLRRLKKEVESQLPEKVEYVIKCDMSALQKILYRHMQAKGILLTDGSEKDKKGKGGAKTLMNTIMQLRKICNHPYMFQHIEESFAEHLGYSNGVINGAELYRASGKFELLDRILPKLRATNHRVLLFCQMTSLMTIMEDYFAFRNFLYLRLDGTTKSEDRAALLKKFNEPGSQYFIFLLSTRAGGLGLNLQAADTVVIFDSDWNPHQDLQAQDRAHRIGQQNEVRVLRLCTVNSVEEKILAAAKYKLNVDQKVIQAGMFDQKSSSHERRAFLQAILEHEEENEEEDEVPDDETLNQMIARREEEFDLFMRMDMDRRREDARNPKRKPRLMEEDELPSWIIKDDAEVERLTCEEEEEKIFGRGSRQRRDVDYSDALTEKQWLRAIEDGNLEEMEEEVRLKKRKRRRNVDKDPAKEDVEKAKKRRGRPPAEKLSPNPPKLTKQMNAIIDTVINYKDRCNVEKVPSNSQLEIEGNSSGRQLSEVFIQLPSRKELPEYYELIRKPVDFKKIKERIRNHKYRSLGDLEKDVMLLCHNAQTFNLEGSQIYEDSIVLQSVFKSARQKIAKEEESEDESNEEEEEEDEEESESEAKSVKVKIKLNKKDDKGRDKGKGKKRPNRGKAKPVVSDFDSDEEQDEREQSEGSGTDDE
Description: as §1, §2

BRG-1, sequence (P51532 whole entry): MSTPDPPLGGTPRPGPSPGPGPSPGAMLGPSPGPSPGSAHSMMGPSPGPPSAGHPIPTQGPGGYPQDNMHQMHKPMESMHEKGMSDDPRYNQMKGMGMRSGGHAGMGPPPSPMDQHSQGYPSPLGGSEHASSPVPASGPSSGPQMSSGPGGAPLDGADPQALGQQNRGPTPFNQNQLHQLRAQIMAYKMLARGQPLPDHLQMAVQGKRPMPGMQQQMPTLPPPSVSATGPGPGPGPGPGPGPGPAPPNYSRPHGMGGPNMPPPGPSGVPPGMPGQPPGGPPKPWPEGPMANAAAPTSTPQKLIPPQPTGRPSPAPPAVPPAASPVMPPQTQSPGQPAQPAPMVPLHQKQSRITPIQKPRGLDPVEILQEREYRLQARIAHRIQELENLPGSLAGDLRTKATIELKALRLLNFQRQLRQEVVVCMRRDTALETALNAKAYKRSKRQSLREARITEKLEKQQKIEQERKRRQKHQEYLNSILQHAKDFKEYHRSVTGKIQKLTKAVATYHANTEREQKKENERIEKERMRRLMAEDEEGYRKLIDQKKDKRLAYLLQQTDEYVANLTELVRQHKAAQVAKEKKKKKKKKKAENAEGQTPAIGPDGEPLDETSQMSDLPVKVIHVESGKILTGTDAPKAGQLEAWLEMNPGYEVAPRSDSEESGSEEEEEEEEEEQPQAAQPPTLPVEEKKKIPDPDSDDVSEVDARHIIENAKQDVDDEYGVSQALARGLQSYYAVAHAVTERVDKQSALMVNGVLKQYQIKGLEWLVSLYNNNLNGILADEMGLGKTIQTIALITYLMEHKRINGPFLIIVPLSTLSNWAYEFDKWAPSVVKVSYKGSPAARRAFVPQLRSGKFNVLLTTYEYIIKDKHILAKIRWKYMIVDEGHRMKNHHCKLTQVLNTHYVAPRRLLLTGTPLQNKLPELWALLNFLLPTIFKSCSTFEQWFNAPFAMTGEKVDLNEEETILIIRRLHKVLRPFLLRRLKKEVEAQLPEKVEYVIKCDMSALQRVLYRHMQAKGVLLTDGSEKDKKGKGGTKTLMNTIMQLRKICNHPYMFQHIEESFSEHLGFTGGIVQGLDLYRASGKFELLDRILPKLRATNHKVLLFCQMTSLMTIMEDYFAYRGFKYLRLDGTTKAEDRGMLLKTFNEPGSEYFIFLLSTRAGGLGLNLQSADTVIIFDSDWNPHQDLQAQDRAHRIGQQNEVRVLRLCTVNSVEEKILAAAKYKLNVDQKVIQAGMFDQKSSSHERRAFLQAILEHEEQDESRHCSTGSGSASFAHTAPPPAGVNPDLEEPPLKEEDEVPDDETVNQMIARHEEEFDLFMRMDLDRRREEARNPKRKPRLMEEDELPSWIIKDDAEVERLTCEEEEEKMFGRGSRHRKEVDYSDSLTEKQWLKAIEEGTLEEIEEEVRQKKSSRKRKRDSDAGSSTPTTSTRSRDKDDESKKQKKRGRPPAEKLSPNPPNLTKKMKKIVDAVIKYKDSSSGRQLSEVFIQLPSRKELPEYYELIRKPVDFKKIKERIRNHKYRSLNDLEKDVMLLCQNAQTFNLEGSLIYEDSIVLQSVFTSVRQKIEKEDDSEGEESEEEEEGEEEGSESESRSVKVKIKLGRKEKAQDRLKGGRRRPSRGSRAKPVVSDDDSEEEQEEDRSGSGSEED

`C[C@@]1(C#N)COCc2ccc(C(=O)NCc3cc4c(cn3)CCN(c3ccc(=O)n(C5CC5)n3)C4)cc21` [Compound 230] was tested, and the IC50 [1] was 500 to 1000 nM, the Emax [1] was 62% and the “BRM Max % Inhibition” value [2] was 97%. For the same compound, the IC50 [2] was 0.1 to 0.5 µM.

For `Cc1cc(-c2ccc3cnc(CNC(=O)c4ccc5c(c4)[C@](C)(C#N)COC5)cc3n2)on1` [Compound 231], the IC50 [1] was > 1000 nM, the Emax [1] was 46% and the “BRM Max % Inhibition” value [2] was 91%. It also gave an IC50 [2] of 0.1 to 0.5 µM.

In the case of `C[C@@]1(F)COCc2ccc(C(=O)NCc3cc4nc(-c5ccc(=O)n(C6CC6)n5)ccc4cn3)cc21` [Compound 233], the IC50 [1] is reported as 500 to 1000 nM, the Emax [1] is reported as 74% and the “BRM Max % Inhibition” value [2] is reported as 98%. It also gave an IC50 [2] of 0.1 to 0.5 µM.

For `C[C@@]1(C#N)COCc2ccc(C(=O)NCc3cc4c(nn3)CCN(c3cccc(N5CCC5)n3)C4)cc21` [Compound 234], the IC50 [1] was 500 to 1000 nM, the Emax [1] was 49% and the “BRM Max % Inhibition” value [2] was 96%. The IC50 [2] was 0.1 to 0.5 µM.

In the case of `C[C@@]1(C#N)COCc2ccc(C(=O)NCc3cc4nc(-c5ccnc(N6CCC6)c5F)sc4cn3)cc21` [Compound 235], the IC50 [1] is reported as 100 to 500 nM, the Emax [1] is reported as 72% and the “BRM Max % Inhibition” value [2] is reported as 99%. The IC50 [2] was < 0.1 µM.

`COc1nn(C2COC2)cc1-c1ccc2cnc(CNC(=O)c3ccc4c(c3)[C@](C)(C#N)COC4)cc2n1` [Compound 236] was tested, and the IC50 [1] was 100 to 500 nM, the Emax [1] was 90% and the “BRM Max % Inhibition” value [2] was 100%. For the same compound, the IC50 [2] was < 0.1 µM.

With `O=C(NCc1cc2nc(-c3cncc(C4CC4)n3)ccc2cn1)c1cc(F)c2c(c1)[C@](F)(C(F)F)COC2` [Compound 237] the IC50 [1] was 100 to 500 nM, the Emax [1] was 92% and the “BRM Max % Inhibition” value [2] was 100%. For the same compound, the IC50 [2] was < 0.1 µM.

`CN(C)c1cccc(-c2ccc3nnc(CNC(=O)c4ccc5c(c4)[C@](C)(F)COC5)cc3n2)n1` [Compound 238] was tested, and the IC50 [1] was < 100 nM, the Emax [1] was 96% and the “BRM Max % Inhibition” value [2] was 100%. For the same compound, the IC50 [2] was < 0.1 µM.

With `C[C@@]1(F)COCc2ccc(C(=O)NCc3cc4nc(-c5cccc(N6CCCC6=O)n5)ccc4nn3)cc21` [Compound 239] the IC50 [1] was 100 to 500 nM, the Emax [1] was 93% and the “BRM Max % Inhibition” value [2] was 101%. For the same compound, the IC50 [2] was < 0.1 µM.

`C[C@@]1(F)COCc2ccc(C(=O)NCc3cc4nc(-c5cccc(C6CC6)n5)ccc4nn3)cc21` [Compound 240] was tested, and the IC50 [1] was 100 to 500 nM, the Emax [1] was 89% and the “BRM Max % Inhibition” value [2] was 101%. For the same compound, the IC50 [2] was < 0.1 µM.

For `O=C(NCc1cc2nc(-c3cncc(C4CC4)n3)ccc2cn1)c1cnc2c(c1)[C@](F)(C(F)F)CCO2` [Compound 241], the IC50 [1] was 500 to 1000 nM, the Emax [1] was 63% and the “BRM Max % Inhibition” value [2] was 97%. It also gave an IC50 [2] of 0.1 to 0.5 µM.

In the case of `C[C@@]1(C#N)COCc2ccc(C(=O)NCc3cc4nc(-c5ccccc5)sc4nn3)cc21` [Compound 242], the IC50 [1] is reported as 500 to 1000 nM, the Emax [1] is reported as 51% and the “BRM Max % Inhibition” value [2] is reported as 94%. For the same compound, the IC50 [2] was 0.1 to 0.5 µM.

With `O=C(NCc1cc2nc(-c3cncc(C4CC4)n3)ccc2cn1)c1cnc2c(c1)[C@@](F)(C(F)F)CCO2` [Compound 243] the IC50 [1] was > 1000 nM, the Emax [1] was 9% and the “BRM Max % Inhibition” value [2] was 81%. The IC50 [2] was 0.1 to 0.5 µM.

`C[C@@]1(F)COCc2ncc(C(=O)NCc3cc4nc(-c5ccnc(N6CCC6)n5)sc4cn3)cc21` [Compound 244] was tested, and the IC50 [1] was > 1000 nM, the Emax [1] was 25% and the “BRM Max % Inhibition” value [2] was 88%. It also gave an IC50 [2] of 0.1 to 0.5 µM.

For `C[C@@]1(F)COCc2ccc(C(=O)NCc3cc4nc(-c5ccnc(N6CCC6)n5)sc4cn3)cc21` [Compound 245], the IC50 [1] was 500 to 1000 nM, the Emax [1] was 75% and the “BRM Max % Inhibition” value [2] was 96%. The IC50 [2] was 0.1 to 0.5 µM.

In the case of `O=C(NCc1cc2nc(-c3cncc(C4CC4)n3)ccc2cn1)c1cnc2c(c1)C(O)(C(F)F)COC2` (centres unmarked) [Compound 246], the IC50 [1] is reported as > 1000 nM, the Emax [1] is reported as 23% and the “BRM Max % Inhibition” value [2] is reported as 88%. It also gave an IC50 [2] of 0.1 to 0.5 µM.

`C[C@@]1(C#N)COCc2ccc(C(=O)NCc3cc4c(nn3)CCN(c3cncc(N5CCC5)n3)C4)cc21` [Compound 247] was tested, and the IC50 [1] was > 1000 nM, the Emax [1] was 65% and the “BRM Max % Inhibition” value [2] was 93%. The IC50 [2] was 0.1 to 0.5 µM.

In the case of `CN(C)c1cccc(-c2ccc3cnc(CNC(=O)c4ccc5c(c4)[C@](C)(F)COC5)cc3n2)n1` [Compound 248], the IC50 [1] is reported as 100 to 500 nM, the Emax [1] is reported as 100% and the “BRM Max % Inhibition” value [2] is reported as 98%. For the same compound, the IC50 [2] was < 0.1 µM.

In the case of `C[C@@]1(F)COCc2ccc(C(=O)NCc3cc4nc(-c5cccc(C6(O)CCOC6)n5)ccc4cn3)cc21` (some centres unmarked) [Compound 249], the IC50 [1] is reported as 500 to 1000 nM, the Emax [1] is reported as 71% and the “BRM Max % Inhibition” value [2] is reported as 97%. It also gave an IC50 [2] of 0.1 to 0.5 µM.

For `COc1ccccc1N1CCc2cnc(CNC(=O)c3ccc4c(c3)[C@](C)(C#N)COC4)cc2C1` [Compound 250], the IC50 [1] was > 1000 nM, the Emax [1] was 25% and the “BRM Max % Inhibition” value [2] was 87%. The IC50 [2] was 0.1 to 0.5 µM.

For `COc1nn(C)cc1-c1ccc2cnc(CNC(=O)c3ccc4c(c3)[C@](C)(F)COC4)cc2c1` [Compound 251], the IC50 [1] was 100 to 500 nM, the Emax [1] was 91% and the “BRM Max % Inhibition” value [2] was 100%. For the same compound, the IC50 [2] was < 0.1 µM.

For `C[C@]1(F)CCCc2ncc(C(=O)NCc3cc4nc(-c5cncc(C6CC6)n5)ccc4cn3)cc21` [Compound 252], the IC50 [1] was > 1000 nM, the Emax [1] was 33% and the “BRM Max % Inhibition” value [2] was 87%. For the same compound, the IC50 [2] was 0.1 to 0.5 µM.

For `C[C@]1(C#N)CCOc2ncc(C(=O)NCc3cc4nc(-c5cncc(C6CC6)n5)ccc4cn3)cc21` [Compound 253], the IC50 [1] was 500 to 1000 nM, the Emax [1] was 57% and the “BRM Max % Inhibition” value [2] was 92%. For the same compound, the IC50 [2] was 0.1 to 0.5 µM.

With `C[C@@]1(F)COCc2ccc(C(=O)NCc3cc4nc(-c5cccc(C(F)F)n5)ccc4nn3)cc21` [Compound 254] the IC50 [1] was 500 to 1000 nM, the Emax [1] was 77% and the “BRM Max % Inhibition” value [2] was 99%. For the same compound, the IC50 [2] was < 0.1 µM.

In the case of `C[C@@]1(F)COCc2ccc(C(=O)NCc3cc4nc(-c5cncc(C6CC6)n5)ccc4nn3)cc21` [Compound 255], the IC50 [1] is reported as 100 to 500 nM, the Emax [1] is reported as 90% and the “BRM Max % Inhibition” value [2] is reported as 100%. For the same compound, the IC50 [2] was < 0.1 µM.

In the case of `COc1ccccc1-c1cnc2cnc(CNC(=O)c3ccc4c(c3)[C@](C)(F)COC4)cc2n1` [Compound 256], the IC50 [1] is reported as 500 to 1000 nM, the Emax [1] is reported as 76% and the “BRM Max % Inhibition” value [2] is reported as 98%. The IC50 [2] was < 0.1 µM.

For `C[C@@]1(F)COCc2ccc(C(=O)NCc3cc4cc(-c5ccnn(C6CC6)c5=O)ccc4cn3)cc21` [Compound 257], the IC50 [1] was 500 to 1000 nM, the Emax [1] was 65% and the “BRM Max % Inhibition” value [2] was 92%. The IC50 [2] was 0.1 to 0.5 µM.

`C[C@@]1(C#N)COCc2ccc(C(=O)NCc3cc4c(cn3)CCN(c3ccnc(N5CCC5)c3F)C4)cc21` [Compound 258] was tested, and the IC50 [1] was 100 to 500 nM, the Emax [1] was 75% and the “BRM Max % Inhibition” value [2] was 96%. It also gave an IC50 [2] of 0.1 to 0.5 µM.

`C[C@@]1(F)COCc2ccc(C(=O)NCc3cc4nc(-c5ccnc(N6CCOCC6)n5)ccc4cn3)cc21` [Compound 259] was tested, and the IC50 [1] was 100 to 500 nM, the Emax [1] was 88% and the “BRM Max % Inhibition” value [2] was 99%. The IC50 [2] was < 0.1 µM.

`CNC(=O)c1ccc(-c2ccc3cnc(CNC(=O)c4ccc5c(c4)[C@](C)(F)COC5)cc3n2)cn1` [Compound 260] was tested, and the IC50 [1] was > 1000 nM, the Emax [1] was 42% and the “BRM Max % Inhibition” value [2] was 83%. The IC50 [2] was 0.1 to 0.5 µM.

In the case of `COc1nn(C)cc1-c1cnc2cnc(CNC(=O)c3ccc4c(c3)[C@](C)(C#N)COC4)cc2c1` [Compound 261], the IC50 [1] is reported as 500 to 1000 nM, the Emax [1] is reported as 61% and the “BRM Max % Inhibition” value [2] is reported as 94%. It also gave an IC50 [2] of 0.1 to 0.5 µM.

In the case of `C[C@@]1(C#N)COCc2ccc(C(=O)NCc3cc4cc(-c5cccc(C6(O)CC6)n5)ccc4cn3)cc21` [Compound 262], the IC50 [1] is reported as < 100 nM, the Emax [1] is reported as 99% and the “BRM Max % Inhibition” value [2] is reported as 102%. The IC50 [2] was < 0.1 µM.
